# Test results taken from patent US7166622B2, “Substituted phenylsulfonamide inhibitors of beta amyloid production” (Wyeth, priority 2002, dated 2007).
# Like-named read-outs stand apart in the source and are kept apart here.
# Experiments:
# beta amyloid production = assay: Repressor Release Assay (RRA); type: cell-based; details: for fold induction at 3 µg/mL: Conc 3 μg/ml; for APPI % of Example #98: relative to Example 98
# How it was run: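 Read-out is luciferase luminescence (RLU) after 36-48 h duplicate compound exposure of transfected CHO-K1 cells. These cells carry transiently introduced APP-lacI and pRSVO-luc DNA. Diluent control was 25 mM Hepes/1% DMSO; toxicity recorded as binary score (1 non-toxic, 0 toxic).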
# CHO-K1 cells = assay: Toxicity in RRA (loss of luciferase signal); details: toxicity = loss of signal (<0.75 fold increase)
# Method: The beta amyloid inhibitory activity of the compounds of the present invention was determined using the Repressor Release Assay (RRA).
# “Fold Increase” refers to the amount of luciferase activity (measured in relative light units) over diluent control. “SEM” refers to the standard error of the mean for fold increase.
# [1] = luciferase activity over diluent control, read-out: APPI Fold Increase
# [2] = Conc 10 μg/ml, luciferase activity over diluent control, read-out: APPI Fold Increase
# [3] = Conc 20 μg/ml, luciferase activity over diluent control, read-out: APPI Fold Increase
# [4] = Conc 20 μg/ml, luciferase activity (RLU) over diluent control, read-out: APPI Fold Increase
# [5] = Conc 20 μg/ml, 1=non-toxic, 0=toxic
# [6] = Conc 10 μg/ml, luciferase activity over diluent control
smiles,measurement,setting,value
"CC[C@@H](C)[C@@H](CO)NS(=O)(=O)c1ccc(Br)cc1 [Example 36, 4-bromo-N-[(1S,2R)-1-(hydroxymethyl)-2-methylbutyl]benzenesulfonamide]",fold induction at 1 µg/mL,"beta amyloid production; Conc 1 μg/ml, luciferase activity over diluent control, read-out: APPI Fold Increase",1.6
same,fold induction at 3 µg/mL,beta amyloid production; [1],2.05
same,fold induction at 10 µg/mL,beta amyloid production; [2],3.33
same,fold induction at 20 µg/mL,beta amyloid production; [3],6.4
same,(%)APPI Toxicity,CHO-K1 cells; Conc 1 μg/ml,1 (1=non-toxic)
same,(%)APPI Toxicity,CHO-K1 cells; Conc 3 μg/ml,1 (1=non-toxic)
same,(%)APPI Toxicity,CHO-K1 cells; Conc 10 μg/ml,1 (1=non-toxic)
same,(%)APPI Toxicity,CHO-K1 cells; Conc 20 μg/ml,1 (1=non-toxic)
"CC[C@](C)(CO)NS(=O)(=O)c1ccc(Cl)cc1 [Example 97, 4-chloro-N-[(1R)-1-(hydroxymethyl)-1-methylpropyl]benzenesulfonamide]",fold induction at 20 µg/mL,beta amyloid production; [3],1.5
same,(%)APPI Toxicity,CHO-K1 cells; Conc 20 μg/ml,1 (1=non-toxic)
"CC[C@H](C)[C@H](NS(=O)(=O)c1cccc(Cl)c1)C(O)C(C)C (stereo partly drawn) [Example 190, 3-chloro-N-{(1S)-2-hydroxy-3-methyl-1-[(1S)-1-methylpropyl]butyl}benzenesulfonamide]",fold induction at 10 µg/mL,beta amyloid production; [2],1.76
same,(%)APPI Toxicity,CHO-K1 cells; Conc 10 μg/ml,1 (1=non-toxic)
"CCCCC(O)(CCCC)[C@@H](NS(=O)(=O)c1cccc(Cl)c1)[C@@H](C)CC [Example 251, N-{(1S)-2-butyl-2-hydroxy-1-[(1S)-1-methylpropyl]hexyl}-3-chlorobenzenesulfonamide]",fold induction at 10 µg/mL,beta amyloid production; [2],3.4
same,(%)APPI Toxicity,CHO-K1 cells; Conc 10 μg/ml,1 (1=non-toxic)
"O=S(=O)(N[C@H](CO)c1ccccc1)c1ccccc1F [Example 112, 2-fluoro-N-[(1S)-2-hydroxy-1-phenylethyl]benzene sulfonamide]",fold induction at 20 µg/mL,beta amyloid production; [3],1.8
same,(%)APPI Toxicity,CHO-K1 cells; Conc 20 μg/ml,1 (1=non-toxic)
"C/C=C(\C)C(O)(/C(C)=C/C)[C@@H](NS(=O)(=O)c1ccccc1F)[C@@H](C)CC (stereo partly drawn) [Example 270, 2-fluoro-N-{(1S,3E)-2-hydroxy-3-methyl-2-[(1E)-1-methyl-1-propenyl]-1-[(1S)-1-methylpropyl]-3-pentenyl}benzenesulfonamide]",fold induction at 10 µg/mL,beta amyloid production; [2],1.86
same,(%)APPI Toxicity,CHO-K1 cells; Conc 10 μg/ml,1 (1=non-toxic)
"C=CC(O)[C@@H](NS(=O)(=O)c1ccccc1F)[C@@H](C)CC (stereo partly drawn) [Example 206, 2-fluoro-N-{(1S)-2-hydroxy-1-[(1S)1-methylpropyl]-3-butenyl}benzenesulfonamide]",fold induction at 10 µg/mL,beta amyloid production; [2],1.9
same,(%)APPI Toxicity,CHO-K1 cells; Conc 10 μg/ml,1 (1=non-toxic)
"CCCCC(O)(CCCC)[C@@H](NS(=O)(=O)c1ccc(Cl)cc1)[C@@H](C)CC [Example 225, N-{(1S)-2-butyl-2-hydroxy-1-[(1S)-1-methylpropyl]hexyl}-4-chlorobenzenesulfonamide]",fold induction at 10 µg/mL,beta amyloid production; [2],6.82
same,(%)APPI Toxicity,CHO-K1 cells; Conc 10 μg/ml,1 (1=non-toxic)
"CC[C@H](CC(C)C)[C@@H](CO)NS(=O)(=O)c1ccc(Cl)cc1 [Example 53, 4-chloro-N-[(1S,2R)-2-ethyl-1-(hydroxymethyl)-4-methylpentyl]benzenesulfonamide]",fold induction at 20 µg/mL,beta amyloid production; [4],5.2
same,(%)APPI Toxicity,CHO-K1 cells; [5],1 (1=non-toxic)
"CCCCCC[C@@H](CCC)[C@@H](CO)NS(=O)(=O)c1ccc(Br)cc1 [Example 79, 4-bromo-N-[(1S,2R)-1-(hydroxymethyl)-2-propyloctyl]benzenesulfonamide]",fold induction at 20 µg/mL,beta amyloid production; [4],1.5
same,(%)APPI Toxicity,CHO-K1 cells; [5],1 (1=non-toxic)
"C=CC(O)[C@@H](NS(=O)(=O)c1ccc(F)cc1)[C@@H](C)CC (stereo partly drawn) [Example 133, 4-fluoro-N-{(1S)-2-hydroxy-1-[(1S)-1-methylpropyl]-3-butenyl}benzenesulfonamide]",fold induction at 10 µg/mL,beta amyloid production; [2],1.79
same,(%)APPI Toxicity,CHO-K1 cells; Conc 10 μg/ml,1 (1=non-toxic)
"CC(C)[C@H](C)[C@@H](CO)NS(=O)(=O)c1ccc(Cl)cc1 [Example 69, 4-chloro-N-[(1S,2S)-1-(hydroxymethyl)-2,3-dimethylbutyl]benzenesulfonamide]",fold induction at 20 µg/mL,beta amyloid production; [4],3.1
same,(%)APPI Toxicity,CHO-K1 cells; [5],1 (1=non-toxic)
"CCCCCC(O)(CCCCC)[C@@H](NS(=O)(=O)c1cccc(Cl)c1)[C@@H](C)CC [Example 250, 3-chloro-N-{(1S)-2-hydroxy-1-[(1S)-1-methylpropyl]-2-pentylheptyl}benzenesulfonamide]",fold induction at 10 µg/mL,beta amyloid production; [2],2.4
same,(%)APPI Toxicity,CHO-K1 cells; Conc 10 μg/ml,1 (1=non-toxic)
"CC[C@H](C)[C@H](NS(=O)(=O)c1ccc(Br)cc1)C(O)(c1ccccc1)c1ccccc1 [Example 215, 4-bromo-N-{(1S,2S)-1-[hydroxy(diphenyl)methyl]-2-methylbutyl}benzenesulfonamide]",fold induction at 10 µg/mL,beta amyloid production; [2],1.65
same,(%)APPI Toxicity,CHO-K1 cells; Conc 10 μg/ml,1 (1=non-toxic)
"CC[C@H](C)[C@@H](CO)N(C)S(=O)(=O)c1ccc(Cl)cc1 [Example 90, 4-Chloro-N-methyl-N-[(1S,2S)-1-(hydroxymethyl)-2-methylbutyl]benzenesulfonamide]",fold induction at 20 µg/mL,beta amyloid production; [3],1.6
same,(%)APPI Toxicity,CHO-K1 cells; Conc 20 μg/ml,1 (1=non-toxic)
"CC[C@H](C)[C@H](NS(=O)(=O)c1ccc(Br)cc1)C(O)c1ccc(N(C)C)cc1 (stereo partly drawn) [Example 164, 4-bromo-N-{(1S,2S)-1-[[4-(dimethylamino)phenyl](hydroxy)methyl]-2-methylbutyl} benzenesulfonamide]",APPI Fold Increase,beta amyloid production; [6],3.53 fold
same,APPI % of Example #98,beta amyloid production; Conc 10 μg/ml,149.31%
same,(%)APPI Toxicity,CHO-K1 cells; Conc 10 μg/ml,1 (1=non-toxic)
"CC[C@H](C)[C@H](NS(=O)(=O)c1ccc(Cl)cc1)C(O)(CC)CC [Example 229, 4-chloro-N-{(1S)-2-ethyl-2-hydroxy-1-[(1S)-1-methylpropyl]butyl}benzenesulfonamide]",fold induction at 10 µg/mL,beta amyloid production; [2],1.52
same,(%)APPI Toxicity,CHO-K1 cells; Conc 10 μg/ml,1 (1=non-toxic)
"CCCCCC[C@@H](C)[C@@H](CO)NS(=O)(=O)c1ccc(Br)cc1 [Example 72, 4-bromo-N-[(1S,2R)-1-(hydroxymethyl)-2-methyloctyl] benzenesulfonamide]",APPI Fold Increase,"beta amyloid production; Conc 20 μg/ml, luciferase activity (RLU) over diluent control",3.2
same,APPI % of Example #98,beta amyloid production; Conc 20 μg/ml,76.4%
same,(%)APPI Toxicity,CHO-K1 cells; [5],1 (1=non-toxic)
"CC[C@H](C)[C@H](NS(=O)(=O)c1ccc(Br)cc1)C(O)c1ccc(OC)cc1 (stereo partly drawn) [Example 158, 4-bromo-N-{(11 S,2S)-1-[hydroxy(4-methoxyphenyl)methyl]-2-methylbutyl}benzenesulfonamide]",APPI Fold Increase,beta amyloid production; [6],2.28 fold
same,APPI % of Example #98,beta amyloid production; Conc 10 μg/ml,101.49%
same,(%)APPI Toxicity,CHO-K1 cells; Conc 10 μg/ml,1 (1=non-toxic)
"CCC(O)[C@@H](NS(=O)(=O)c1cccc(Cl)c1)[C@@H](C)CC (stereo partly drawn) [Example 195, 3-chloro-N-{(1S)-2-hydroxy-1-[(1S)-1-methylpropyl]butyl}benzenesulfonamide]",fold induction at 10 µg/mL,beta amyloid production; [2],2.16
same,(%)APPI Toxicity,CHO-K1 cells; Conc 10 μg/ml,1 (1=non-toxic)
"CCCCCC(O)[C@@H](NS(=O)(=O)c1cccc(Cl)c1)[C@@H](C)CC (stereo partly drawn) [Example 188, 3-chloro-N-{(1S)-2-hydroxy-1-[(1S)-1-methylpropyl]heptyl}benzenesulfonamide]",fold induction at 10 µg/mL,beta amyloid production; [2],3.54
same,(%)APPI Toxicity,CHO-K1 cells; Conc 10 μg/ml,1 (1=non-toxic)
"CC[C@H](CC(C)C)[C@@H](CO)NS(=O)(=O)c1ccc(Br)cc1 [Example 73, 4-bromo-N-[(1S,2R)-2-ethyl-1-(hydroxymethyl)-4-methylpentyl]benzenesulfonamide]",fold induction at 20 µg/mL,beta amyloid production; [4],5.4
same,(%)APPI Toxicity,CHO-K1 cells; [5],1 (1=non-toxic)
"CCCCCC(O)[C@@H](NS(=O)(=O)c1ccccc1F)[C@@H](C)CC (stereo partly drawn) [Example 204, 2-fluoro-N-{(1S)-2-hydroxy-1-[(1S)-1-methylpropyl]heptyl}benzenesulfonamide]",fold induction at 10 µg/mL,beta amyloid production; [2],3.73
same,(%)APPI Toxicity,CHO-K1 cells; Conc 10 μg/ml,1 (1=non-toxic)
"CC[C@H](C)[C@@H](CO)N(CC#Cc1ccccc1)S(=O)(=O)c1ccc(Cl)cc1 [Example 48, 4-chloro-N-[(1S,2S)-1-(hydroxymethyl)-2-methylbutyl]-N-(3-phenylprop-2-ynyl) benzenesulfonamide]",APPI Fold Increase,"beta amyloid production; Conc 20 μg/ml, luciferase activity over diluent control",3.1 fold
same,APPI % of Example #98,beta amyloid production; Conc 20 μg/ml,116.6%
same,(%)APPI Toxicity,CHO-K1 cells; Conc 20 μg/ml,1 (1=non-toxic)
"O=S(=O)(NC1(CO)CCCC1)c1ccccc1F [Example 114, 2-fluoro-N-[1-(hydroxymethyl)cyclopentyl]benzenesulfonamide]",fold induction at 20 µg/mL,beta amyloid production; [3],1.5
same,(%)APPI Toxicity,CHO-K1 cells; Conc 20 μg/ml,1 (1=non-toxic)
"CC[C@@H](CO)NS(=O)(=O)c1cccc(Cl)c1 [Example 108, 3-chloro-N-[(1S)-1-(hydroxymethyl)propyl]benzene sulfonamide]",fold induction at 3 µg/mL,beta amyloid production; [1],1.66
same,(%)APPI Toxicity,CHO-K1 cells; Conc 3 μg/ml,1 (1=non-toxic)
"O=S(=O)(NC1(CO)CCCCC1)c1ccc(Cl)cc1 [Example 123, 4-chloro-N-[1-(hydroxymethyl)cyclohexyl]benzenesulfonamide]",fold induction at 20 µg/mL,beta amyloid production; [3],4.4
same,(%)APPI Toxicity,CHO-K1 cells; Conc 20 μg/ml,1 (1=non-toxic)
